Reference: ChEMBL document CHEMBL1201862, “PubChem BioAssay data set” (2004)
Active and inactive are the calls of the source.

Experiments:
[1] = target: T1, Alkaline phosphatase, tissue-nonspecific isozyme (Homo sapiens, UniProt P05186)
T1 sequence (P05186 whole entry): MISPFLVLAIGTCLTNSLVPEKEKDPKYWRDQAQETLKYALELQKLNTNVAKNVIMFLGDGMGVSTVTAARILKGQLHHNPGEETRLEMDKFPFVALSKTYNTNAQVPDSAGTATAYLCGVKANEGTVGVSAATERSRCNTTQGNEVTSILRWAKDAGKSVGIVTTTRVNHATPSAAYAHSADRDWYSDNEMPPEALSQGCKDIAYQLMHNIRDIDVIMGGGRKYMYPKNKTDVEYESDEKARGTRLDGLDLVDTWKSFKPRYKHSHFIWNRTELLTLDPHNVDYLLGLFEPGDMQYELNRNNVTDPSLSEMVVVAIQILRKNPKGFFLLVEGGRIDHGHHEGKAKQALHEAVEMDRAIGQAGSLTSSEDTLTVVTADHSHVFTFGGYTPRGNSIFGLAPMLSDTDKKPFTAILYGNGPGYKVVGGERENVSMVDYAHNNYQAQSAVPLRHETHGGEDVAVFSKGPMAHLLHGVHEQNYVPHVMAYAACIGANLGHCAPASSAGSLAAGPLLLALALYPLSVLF

[2] = target: Photoreceptor-specific nuclear receptor (Homo sapiens, UniProt Q9Y5X4); type: functional;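 also: potency for compounds that break the NR2E3 corepressor complex and count as activators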
[3] = target: Peroxisome proliferator-activated receptor gamma/Nuclear receptor coactivator 3 (Homo sapiens, UniProt P37231); assay: (§1) TR-FRET dose response biochemical High Throughput Screening assay for agonists of the steroid receptor coactivator 3 (SRC-3) recruitment by the peroxisome proliferator-activated receptor gamma (PPAR gamma): non-selective agonists. [Related pubchem assays: 1301 (Confirmation screen.), 1048 (Primary screen.)]; type: functional
[4] = target: Peroxisome proliferator-activated receptor gamma/Nuclear receptor coactivator 1 (Homo sapiens, UniProt P37231); assay: as §1, with “1 (SRC-1)” for “3 (SRC-3)”, “assays (depositor defined):AID1300, AID1808, AID504735, AID631]” for “assays: 1301 (Confirmation screen.), 1048 (Primary screen.)]”; type: protein assay
[5] = target: Peroxisome proliferator-activated receptor gamma/Nuclear receptor corepressor 2 (Homo sapiens, UniProt P37231+Q9Y618); type: functional
[6] = target: Peroxisome proliferator-activated receptor gamma/Nuclear receptor coactivator 2 (Homo sapiens, UniProt P37231); assay: TR-FRET dose response biochemical High Throughput Screening assay for agonists of the steroid receptor coactivator 2 (SRC-2) recruitment by the peroxisome proliferator-activated receptor gamma (PPAR gamma): non-selective agonists. [Related pubchem assays: 1297, 1032 ]; type: functional
Cytochrome P450 2C19 = Cytochrome P450 2C19 (Homo sapiens, UniProt P33261); assay: Cytochrome panel assay with activity outcomes. Panel member name: p450-cyp2c19 Compounds with AC50 equal or less than 10 uM are considered active; type: functional; settings: read-out: AC50
Wee1-like protein kinase = Wee1-like protein kinase (Homo sapiens, UniProt P30291); assay: G2/M cell cycle arrest in HeLa, late-stage follow-up, mechanism study for Wee1 degradation inhibitor project, FACS, panel member Wee1 Degradation (AID 2088)
[7] = target: G2/mitotic-specific cyclin-B1 (Homo sapiens, UniProt P14635); assay: G2/M cell cycle arrest in HeLa, late-stage follow-up, mechanism study for Wee1 degradation inhibitor project, FACS, panel member Cyclin B Degradation (AID 2088)
[8] = cytotoxicity in HPDE-C7 cells, cell-based, fluorescence, HTS (AID 430); type: functional; settings: Homo sapiens
[9] = cytotoxicity in KRAS-transformed pancreatic duct cells, primary screen, cell-based, fluorescence, HTS (AID 431); type: functional; settings: Homo sapiens;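 also: cell line used: HPDE-C7K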
[10] = target: T2, RNA-binding protein pos-1 (Caenorhabditis elegans, UniProt G5EF15); assay: inhibitors of POS-1/mex-3 RNA binding, dose response, biochemical, fluorescence polarization (AID 1964);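 also: purified POS-1 fused to maltose binding protein made in E. coli; potency of compounds blocking POS-1 binding to fluorescent RNA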
T2 sequence (G5EF15 whole entry): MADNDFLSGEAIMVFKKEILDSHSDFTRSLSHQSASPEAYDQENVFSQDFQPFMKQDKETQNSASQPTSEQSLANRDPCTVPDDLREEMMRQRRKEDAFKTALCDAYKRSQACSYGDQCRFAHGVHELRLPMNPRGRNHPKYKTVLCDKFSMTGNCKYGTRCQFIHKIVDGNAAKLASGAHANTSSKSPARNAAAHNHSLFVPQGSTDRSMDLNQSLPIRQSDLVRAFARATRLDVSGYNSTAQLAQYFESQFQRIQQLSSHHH

HT-1080 = assay: cytotoxicity in HT1080 fibrosarcoma cells, cell-based, fluorescence readout (AID 620); type: functional; settings: Homo sapiens
[11] = target: Luciferin 4-monooxygenase (Photinus pyralis, UniProt P08659); assay: Counter Screen for Luciferase-based Assay Positives. [Related pubchem assays: 620, 618, 411 ]
[12] = target: T3, Zinc finger protein mex-5 (Caenorhabditis elegans, UniProt Q9XUB2); assay: MEX-5/TCR-2 RNA interaction inhibitors, dose response, biochemical, C. elegans, fluorescence polarization (AID 1960)
T3 sequence (Q9XUB2 whole entry): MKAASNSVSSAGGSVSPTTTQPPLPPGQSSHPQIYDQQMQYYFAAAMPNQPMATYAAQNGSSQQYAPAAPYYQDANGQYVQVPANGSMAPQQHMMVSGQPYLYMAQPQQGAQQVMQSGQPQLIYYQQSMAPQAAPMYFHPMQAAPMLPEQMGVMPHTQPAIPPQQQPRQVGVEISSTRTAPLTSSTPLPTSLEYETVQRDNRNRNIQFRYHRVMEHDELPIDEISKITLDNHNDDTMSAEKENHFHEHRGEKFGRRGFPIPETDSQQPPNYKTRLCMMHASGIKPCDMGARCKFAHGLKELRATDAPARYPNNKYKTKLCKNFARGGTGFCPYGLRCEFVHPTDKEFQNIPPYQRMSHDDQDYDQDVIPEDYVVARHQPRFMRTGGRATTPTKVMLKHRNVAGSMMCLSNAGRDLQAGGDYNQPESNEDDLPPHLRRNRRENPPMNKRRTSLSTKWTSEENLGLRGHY

[13] = HEK293 cell cytotoxicity, dose response, cytotoxicity control, plate reader, cherry-picked samples (AID 743446); type: functional, cell-based
[14] = A549 cell cytotoxicity, dose response, cytotoxicity control, plate reader, cherry-pick, antagonist series (AID 743412); type: functional, cell-based
[15] = MC4R antagonists, dose response, counter-screen for LGR2 antagonist project, cell-based, plate reader, cherry pick (AID 743444); type: functional;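 also: transfected HEK 293 cells stimulated with alpha-MSH peptide; potency of inhibitors of the alpha-MSH evoked signal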
[16] = Luminescence-based counterscreen assay for KLF5 inhibitors: dose response cell-based high throughput screening assay to identify cytotoxic compounds using the IEC-6 intestinal epithelial cell line. [Related pubchem assays: 1700 (Primary screen.), 1834 (Confirmation screen.), 1858 (Summary AID.), 1905 (Counterscreen.)]; type: functional
[17] = HepG2 cell cytotoxicity, dose response, cytotoxicity control, plate reader, cherry-pick, antagonist series (AID 743416); type: functional, cell-based
[18] = LGR2 antagonists, dose response, cell-based, HEK293, CRE-luciferase reporter, cherry pick, set 2 (AID 743343); type: functional;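 also: transfected cells were stimulated with diluted bursicon conditioned medium after compound addition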

Peroxisome proliferator-activated receptor gamma/Nuclear receptor corepressor 2, sequence (P37231 whole entry): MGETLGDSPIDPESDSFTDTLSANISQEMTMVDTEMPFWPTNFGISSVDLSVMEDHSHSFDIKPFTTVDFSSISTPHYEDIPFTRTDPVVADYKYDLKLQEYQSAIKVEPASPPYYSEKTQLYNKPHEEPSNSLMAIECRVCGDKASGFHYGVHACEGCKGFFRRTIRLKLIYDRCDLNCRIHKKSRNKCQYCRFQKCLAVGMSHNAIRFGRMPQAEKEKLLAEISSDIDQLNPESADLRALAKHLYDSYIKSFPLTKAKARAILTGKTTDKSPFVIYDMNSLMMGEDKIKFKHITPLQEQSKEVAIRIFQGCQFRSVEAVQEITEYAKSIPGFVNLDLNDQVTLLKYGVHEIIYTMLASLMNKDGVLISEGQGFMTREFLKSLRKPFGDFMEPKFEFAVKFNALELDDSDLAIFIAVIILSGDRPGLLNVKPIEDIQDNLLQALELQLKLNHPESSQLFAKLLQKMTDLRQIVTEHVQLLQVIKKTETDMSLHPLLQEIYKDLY
Peroxisome proliferator-activated receptor gamma/Nuclear receptor corepressor 2, sequence (Q9Y618 whole entry): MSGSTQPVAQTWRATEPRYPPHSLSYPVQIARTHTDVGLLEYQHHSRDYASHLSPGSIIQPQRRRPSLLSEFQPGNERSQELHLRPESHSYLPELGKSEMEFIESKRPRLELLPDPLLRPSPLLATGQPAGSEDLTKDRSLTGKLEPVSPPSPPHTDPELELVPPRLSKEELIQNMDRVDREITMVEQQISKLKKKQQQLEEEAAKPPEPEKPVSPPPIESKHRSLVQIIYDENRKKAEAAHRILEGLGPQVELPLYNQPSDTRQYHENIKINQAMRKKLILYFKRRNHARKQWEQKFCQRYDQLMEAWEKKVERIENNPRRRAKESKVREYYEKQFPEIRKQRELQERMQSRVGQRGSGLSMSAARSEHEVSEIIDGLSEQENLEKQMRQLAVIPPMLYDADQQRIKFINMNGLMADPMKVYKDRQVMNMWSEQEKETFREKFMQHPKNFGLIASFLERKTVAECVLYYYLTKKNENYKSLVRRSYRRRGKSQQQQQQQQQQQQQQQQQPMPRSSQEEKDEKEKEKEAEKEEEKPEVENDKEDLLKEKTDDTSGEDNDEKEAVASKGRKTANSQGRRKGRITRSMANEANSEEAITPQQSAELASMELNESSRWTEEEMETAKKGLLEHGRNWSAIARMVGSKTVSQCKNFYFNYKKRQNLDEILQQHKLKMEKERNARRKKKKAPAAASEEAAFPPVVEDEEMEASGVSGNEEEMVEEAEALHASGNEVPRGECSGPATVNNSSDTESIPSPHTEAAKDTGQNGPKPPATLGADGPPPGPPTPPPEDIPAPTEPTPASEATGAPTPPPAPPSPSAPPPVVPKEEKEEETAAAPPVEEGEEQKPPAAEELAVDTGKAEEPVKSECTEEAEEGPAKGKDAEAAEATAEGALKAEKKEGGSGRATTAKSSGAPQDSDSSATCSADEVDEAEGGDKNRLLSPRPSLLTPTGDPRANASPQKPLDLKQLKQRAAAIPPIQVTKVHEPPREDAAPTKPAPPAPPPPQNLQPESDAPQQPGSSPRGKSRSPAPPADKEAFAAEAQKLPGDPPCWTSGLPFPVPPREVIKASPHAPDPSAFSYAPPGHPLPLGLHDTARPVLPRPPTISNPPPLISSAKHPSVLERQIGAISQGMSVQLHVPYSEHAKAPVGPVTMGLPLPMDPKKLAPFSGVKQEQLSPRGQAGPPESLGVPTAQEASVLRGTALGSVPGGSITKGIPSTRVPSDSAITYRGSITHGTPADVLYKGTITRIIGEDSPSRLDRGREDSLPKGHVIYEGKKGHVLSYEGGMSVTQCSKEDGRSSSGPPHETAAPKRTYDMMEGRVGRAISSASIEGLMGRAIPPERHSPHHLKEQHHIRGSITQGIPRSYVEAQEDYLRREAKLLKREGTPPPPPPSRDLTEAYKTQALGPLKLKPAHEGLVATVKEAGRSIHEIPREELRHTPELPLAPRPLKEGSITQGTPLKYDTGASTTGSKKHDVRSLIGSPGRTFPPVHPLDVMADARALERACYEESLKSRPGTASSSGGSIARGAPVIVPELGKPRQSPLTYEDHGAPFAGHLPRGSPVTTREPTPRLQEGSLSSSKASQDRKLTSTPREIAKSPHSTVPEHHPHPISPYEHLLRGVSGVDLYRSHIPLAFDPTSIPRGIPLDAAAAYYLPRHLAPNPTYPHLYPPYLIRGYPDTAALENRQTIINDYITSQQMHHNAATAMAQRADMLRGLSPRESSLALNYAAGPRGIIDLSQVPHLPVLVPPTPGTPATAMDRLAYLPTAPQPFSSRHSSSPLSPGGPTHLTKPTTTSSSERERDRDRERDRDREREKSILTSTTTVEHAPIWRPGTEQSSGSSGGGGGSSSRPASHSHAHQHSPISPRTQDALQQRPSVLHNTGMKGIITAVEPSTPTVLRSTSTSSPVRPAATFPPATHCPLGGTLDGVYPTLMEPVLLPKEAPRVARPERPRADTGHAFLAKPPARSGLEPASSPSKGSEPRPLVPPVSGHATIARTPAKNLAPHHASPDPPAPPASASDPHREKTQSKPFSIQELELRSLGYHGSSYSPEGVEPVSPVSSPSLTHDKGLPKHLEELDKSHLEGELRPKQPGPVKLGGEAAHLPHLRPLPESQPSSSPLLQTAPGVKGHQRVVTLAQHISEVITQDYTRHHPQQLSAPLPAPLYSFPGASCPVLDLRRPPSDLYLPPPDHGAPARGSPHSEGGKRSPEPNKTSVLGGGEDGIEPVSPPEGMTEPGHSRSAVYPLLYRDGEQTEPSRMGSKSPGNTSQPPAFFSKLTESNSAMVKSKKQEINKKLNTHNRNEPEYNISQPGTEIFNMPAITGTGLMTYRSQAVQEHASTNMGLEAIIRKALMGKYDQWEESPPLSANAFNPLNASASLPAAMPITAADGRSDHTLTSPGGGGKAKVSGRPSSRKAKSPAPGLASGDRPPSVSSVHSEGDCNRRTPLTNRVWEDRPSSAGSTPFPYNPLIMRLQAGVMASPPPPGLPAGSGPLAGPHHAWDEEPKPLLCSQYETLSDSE
Peroxisome proliferator-activated receptor gamma/Nuclear receptor coactivator 3, sequence (P37231 whole entry): as the sequence (P37231 whole entry) above
Peroxisome proliferator-activated receptor gamma/Nuclear receptor coactivator 3, sequence (Q9Y6Q9 whole entry, further chain): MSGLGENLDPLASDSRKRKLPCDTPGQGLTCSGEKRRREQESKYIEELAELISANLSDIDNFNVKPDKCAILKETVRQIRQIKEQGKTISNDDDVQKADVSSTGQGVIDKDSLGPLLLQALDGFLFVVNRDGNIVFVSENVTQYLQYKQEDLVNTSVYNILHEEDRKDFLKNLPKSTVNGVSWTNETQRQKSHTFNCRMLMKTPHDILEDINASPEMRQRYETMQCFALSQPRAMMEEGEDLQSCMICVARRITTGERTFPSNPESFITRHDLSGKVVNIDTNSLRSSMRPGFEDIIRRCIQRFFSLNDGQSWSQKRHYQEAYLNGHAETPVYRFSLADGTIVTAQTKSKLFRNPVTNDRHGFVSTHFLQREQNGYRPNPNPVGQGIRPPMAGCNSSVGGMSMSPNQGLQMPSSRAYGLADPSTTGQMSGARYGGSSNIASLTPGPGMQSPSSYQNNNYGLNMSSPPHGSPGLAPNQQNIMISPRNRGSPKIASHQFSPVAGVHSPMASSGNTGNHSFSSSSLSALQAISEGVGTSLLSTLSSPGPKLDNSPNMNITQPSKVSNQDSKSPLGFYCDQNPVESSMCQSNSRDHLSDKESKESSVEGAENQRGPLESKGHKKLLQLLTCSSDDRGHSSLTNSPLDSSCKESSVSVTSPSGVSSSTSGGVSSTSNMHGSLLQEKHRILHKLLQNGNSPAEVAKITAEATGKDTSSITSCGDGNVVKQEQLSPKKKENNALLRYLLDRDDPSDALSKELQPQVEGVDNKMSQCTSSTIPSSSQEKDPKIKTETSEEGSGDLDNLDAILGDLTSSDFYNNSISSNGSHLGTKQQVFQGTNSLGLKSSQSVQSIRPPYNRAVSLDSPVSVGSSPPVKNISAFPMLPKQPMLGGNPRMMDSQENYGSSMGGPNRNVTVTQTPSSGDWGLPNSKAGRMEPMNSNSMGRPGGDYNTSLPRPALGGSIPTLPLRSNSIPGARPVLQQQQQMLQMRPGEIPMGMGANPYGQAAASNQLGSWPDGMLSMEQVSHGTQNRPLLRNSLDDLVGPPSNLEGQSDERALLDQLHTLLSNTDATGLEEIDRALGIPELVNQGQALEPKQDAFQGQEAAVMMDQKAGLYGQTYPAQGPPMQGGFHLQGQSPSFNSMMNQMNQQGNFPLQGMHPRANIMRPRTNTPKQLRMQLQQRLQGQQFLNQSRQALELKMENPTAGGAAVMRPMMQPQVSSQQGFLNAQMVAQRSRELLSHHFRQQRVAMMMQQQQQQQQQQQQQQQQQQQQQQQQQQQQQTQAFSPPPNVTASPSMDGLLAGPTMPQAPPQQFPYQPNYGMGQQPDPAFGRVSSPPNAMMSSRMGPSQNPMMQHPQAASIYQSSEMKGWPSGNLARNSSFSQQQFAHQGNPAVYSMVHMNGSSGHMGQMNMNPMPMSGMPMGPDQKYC

## Cn1nc(CC(=O)NC2CCCCCCCCCCC2)c2ccccc2c1=O
[1]
  EC50: 65 µM (not active)

## CN(C)CCN1C(=O)C(O)=C(C(=O)c2cc3ccccc3o2)C1c1cccc(Br)c1 (stereo unspecified)
[2]
  IC50: > 39.8 µM (not active)
[3]
  EC50: > 79.4 µM (not active)
[4]
  EC50: > 79.4 µM (inactive)
[5]
  IC50: 2.25 µM (active)
[6]
  EC50: > 79.4 µM (not active)
Cytochrome P450 2C19
  AC50: 31.6 µM (inconclusive)

## Cc1ccc(NC(=O)COc2cc(=O)n(C)c3ccccc23)nc1
Wee1-like protein kinase
  EC50: > 49.7 µM (inactive)
[7]
  EC50: > 49.7 µM (inactive)

## Cc1c(NC(=O)c2coc(=O)c(Br)c2)c(=O)n(-c2ccccc2)n1C
[8]
  EC50: 7.2 µM (active)
[9]
  EC50: 7.23 µM (active)
[10]
  EC50: 8.99 µM (active)
HT-1080
  EC50: 15 µM (active)
[11]
  EC50: 0.61 µM (active)
[12]
  EC50: 16.8 µM (active)

## CCc1ccc(C(=O)Nc2nc3ccccc3[nH]2)cc1
[13]
  AC50: 28.4 µM (active)
[14]
  AC50: 31.8 µM (active)
[15]
  AC50: 1.45 µM (active)
[16]
  IC50: 22.1 µM (not active)
[17]
  AC50: 29.3 µM (active)
[18]
  AC50: 1.27 µM (active)
